Results published in patent US12461089B2, “Olfactory receptor involved in the perception of musk fragrance and the use thereof” (ChemoSensoryX Biosciences SA, priority 2017, dated 2025).
Substitutions are numbered along the chain they refer to. Where two headings read alike, the source gives them in different places.

Tests used:
Format in all cases: cell-based
OR2A5 = target: T1, OR2A5 (Homo sapiens, UniProt Q96R48, A202S/A255T/I126V); assay: Luciferase reporter concentration-response analysis on OR2A5; conditions: CRE-luciferase
T1 construct: expressed in transfected cells; host or cells: HEK293T-RTP1A1/RTP2
T1 sequence (Q96R48 1-311 I126V/A202S/A255T): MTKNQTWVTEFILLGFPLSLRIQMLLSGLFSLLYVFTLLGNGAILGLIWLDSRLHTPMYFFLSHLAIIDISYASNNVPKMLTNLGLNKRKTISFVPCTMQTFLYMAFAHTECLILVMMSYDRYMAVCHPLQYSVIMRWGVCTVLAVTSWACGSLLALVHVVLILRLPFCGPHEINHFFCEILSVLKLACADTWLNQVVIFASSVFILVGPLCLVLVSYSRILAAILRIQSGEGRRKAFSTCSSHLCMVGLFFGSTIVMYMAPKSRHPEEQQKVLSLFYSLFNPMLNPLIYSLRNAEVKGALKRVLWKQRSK
Experimental: HEK293T-RTP1A1/RTP2 cells were maintained in minimal essential medium (EMEM, Lonza) containing 10% fetal bovine serum (M10). These cells were generated by transfecting HEK293T with an expression vector containing the sequences of the chaperone proteins RTP1A1 and RTP2 and a resistance gene to puromycin, using Lipofectamine 2000. The recombinant cell population, used in these experiments, was selected by adding 10 μg/ml of puromycin into the culture medium and subsequently subcloned (WO 2014/191047 A1).
(§1) Odorant molecules were diluted at a concentration of 1 mole/liter (M) into dimethyl sulfoxide (DMSO) to generate stock solutions.
(§2) For concentration-response analysis, serial dilutions of the tested molecules were prepared from stock solutions in EMEM plated into 96-well plates.
(§3) For the initial deorphanisation screening and dose-response analysis, a Luciferase-based gene reporter assay (Promega, Leiden, The Nederlands) was used. Briefly, cells were platted on Poly-D-lysine-coated 96-well and transfected with a plasmid containing the CRE-luciferase and a plasmid containing the olfactory receptor. Sixteen hours after transfection, the culture medium was replaced by serum-free EMEM containing the tested compounds at a determined concentration. After four hours of incubation at 37° C. degree, cells were lysed and processed for luminescence measurement. Luminescene emission was recorded. Results were expressed as luciferase activity (Relative […] Unit (RLU)) or as percentage of the response induced by 10 μM of the adenylate cyclase activator Forskolin. An empty plasmid is used as negative control.
In 1998, Krautwurst and collaborators have provided a model system for the study of ligand specificity and structure-function relationships for olfactory receptors (Krautwurst et al., 1998 Cell 95, 917-26). […] Based on their publication, a chimeric OR5A2_variant 1 olfactory receptor was created containing the TM2-TM7 amino acid sequence of OR5A2_variant 1 flanked by the N-teminal and C-terminal sequence of the olfactory receptor OR2A5 (cf. SEQ ID NO: 12). This chimeric OR5A2_variant 1 receptor shared 86 percent identity with the native OR5A2_variant 1 receptor (FIG. 6A and SEQ ID NO: 10).
(§4) To test if the amino acids substitution could impact the musk sensitivity, and specificity and to validate the Krautwurst's model, luciferase assays were performed as described previously after transfection of the chimeric OR5A2_variant 1. Cells were treated with semi-logarithmic serial dilutions of musk compounds from the four structurally different groups described earlier.

chimeric OR5A2_variant 1 = target: T2, chimeric OR5A2_variant 1 (Homo sapiens, UniProt Q8NGI9, F293L/H55R/I289L/M58T); assay: Luciferase reporter concentration-response analysis on chimeric OR5A2_variant 1; conditions: CRE-luciferase; empty vector pEFIBRHO as control
T2 construct: expressed in transfected cells; host or cells: HEK293T-RTP1A1/RTP2
T2 sequence (Q8NGI9 with tags, fused parts or gaps H55R/M58T/I289L/F293L): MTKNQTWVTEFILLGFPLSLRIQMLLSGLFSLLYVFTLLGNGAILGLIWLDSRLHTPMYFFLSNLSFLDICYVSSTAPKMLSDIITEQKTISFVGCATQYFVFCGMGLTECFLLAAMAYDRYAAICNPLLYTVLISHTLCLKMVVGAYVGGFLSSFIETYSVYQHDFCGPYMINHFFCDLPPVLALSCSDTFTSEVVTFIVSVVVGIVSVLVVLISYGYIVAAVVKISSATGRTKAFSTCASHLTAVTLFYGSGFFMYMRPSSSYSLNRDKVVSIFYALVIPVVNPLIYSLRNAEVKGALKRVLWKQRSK
Experimental: (§5) HEK293T-RTP1A1/RTP2 cells were maintained in minimal essential medium (EMEM, Lonza) containing 10% fetal bovine serum (M10). These cells were generated by transfecting HEK293T with an expression vector containing the sequences of the chaperone proteins RTP1A1 and RTP2 and a resistance gene to puromycin, using Lipofectamine 2000.
as §1, §2, §3, §4
In each experiment, an empty vector was used as negative control (pEFIBRHO).

OR5A2_variant 2 = target: T3, OR5A2_variant 2 (Homo sapiens, UniProt Q8NGI9, P172L); assay: Luciferase reporter concentration-response analysis on haplotype OR5A2_variant 2 (P172L); conditions: CRE-luciferase; empty vector pEFIBRHO as control
T3 construct: (P172L, OR5A2_variant 2); expressed in transfected cells; host or cells: HEK293T-RTP1A1/RTP2
T3 sequence (Q8NGI9 1-324 P172L): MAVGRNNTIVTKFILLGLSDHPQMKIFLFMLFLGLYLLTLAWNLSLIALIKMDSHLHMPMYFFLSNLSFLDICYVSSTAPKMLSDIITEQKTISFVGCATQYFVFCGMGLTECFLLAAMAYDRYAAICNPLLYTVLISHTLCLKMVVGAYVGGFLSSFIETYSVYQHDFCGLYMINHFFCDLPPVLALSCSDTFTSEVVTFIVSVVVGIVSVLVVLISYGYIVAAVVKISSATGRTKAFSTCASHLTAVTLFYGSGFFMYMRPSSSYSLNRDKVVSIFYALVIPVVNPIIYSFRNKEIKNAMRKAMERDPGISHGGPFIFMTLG
Experimental: as §5, §1, §2, §3
OR genes are highly variable, with many alleles resulting in differences in smell perception from person to person. These differences can be attributed to genetic variations like, for example, nucleotide polymorphisms. […] Amino acids alignment of the 2 haplotypes are represented in FIG. 4.
To test if the substitution could impact the musk sensitivity, luciferase assays were performed as described previously after transfection of both OR5A2 variants. Cells were treated with semi-logarithmic serial dilutions of musk compounds from the four structurally different groups described earlier. In each experiment, an empty vector was used as negative control (pEFIBRHO).

OR5A2_variant 1 = target: T4, OR5A2_variant 1 (Homo sapiens, UniProt Q8NGI9); assay: Luciferase reporter concentration-response analysis on OR5A2_variant 1; conditions: for activation of OR5A2 (OR5A2_variant 1), concentration-response: CRE-luciferase, semi-logarithmic serial dilutions, empty vector pEFIBRHO as control
T4 construct: expressed in transfected cells; host or cells: HEK293T-RTP1A1/RTP2
T4 sequence (Q8NGI9 1-324): T3 sequence (Q8NGI9 1-324 P172L) with L172P

[1] = concentration-response analysis, luciferase reporter, values given as negative (log) numbers, read-out: calculated EC50, OR5A2 (converted)

Cc1c([N+](=O)[O-])c(C)c([N+](=O)[O-])c(C(C)(C)C)c1[N+](=O)[O-] [Musk Xylene, 1-tert-butyl-3,5-dimethyl-2,4,6-trinitrobenzene]
activation of OR2A5, concentration-response (OR2A5): but not the OR2A5 | activation of chimeric OR5A2_variant 1, concentration-response (chimeric OR5A2_variant 1): shows dose response curves | activation of OR5A2_variant 2 (P172L), concentration-response (OR5A2_variant 2): not activated | EC50 (OR5A2_variant 1): 1.86 µM | activation of OR5A2 (OR5A2_variant 1), concentration-response (OR5A2_variant 1): shows dose response curves

CC(=O)c1c(C)c([N+](=O)[O-])c(C(C)(C)C)c([N+](=O)[O-])c1C [Musk Ketone, 4-tert-butyl-2,6-dimethyl-3,5-dinitroacetophenone]
activation of OR2A5, concentration-response (OR2A5): but not the OR2A5 | activation of chimeric OR5A2_variant 1, concentration-response (chimeric OR5A2_variant 1): shows dose response curves | activation of OR5A2_variant 2 (P172L), concentration-response (OR5A2_variant 2): not activated | activation of OR5A2 (OR5A2_variant 1), concentration-response (OR5A2_variant 1): shows dose response curves | EC50 (OR5A2_variant 1; [1]): 107 µM

O=C1CCC/C=C\CCCCCCCCCC1 [Velvione]
activation of OR2A5, concentration-response (OR2A5): but not the OR2A5 | activation of chimeric OR5A2_variant 1, concentration-response (chimeric OR5A2_variant 1): shows dose response curves | activation of OR5A2_variant 2 (P172L), concentration-response (OR5A2_variant 2): not activated | activation of OR5A2 (OR5A2_variant 1), concentration-response (OR5A2_variant 1): shows dose response curves | EC50 (OR5A2_variant 1; [1]): 28.8 µM
